Experimental findings from patent publication US4652568A, “Theophylline-7-acetic acid ester of d,l-trans-sobrerol having mucosecretolytic-fluidizing and antibronchospastic activity, a process for its preparation and pharmaceutical compositions thereof” (priority 1984, dated 1987) are described below.

Data set [1] can be described thus: Acute toxicity: LD50 in the mouse after a single oral administration. Particulars: in vivo, mortality at 14th day, Litchfield and Wilcoxon. On the procedure:
Method for studying LD50 in the mouse after a single oral administration.
Groups of 10 Swiss albine, female, adult mice (20-22 g), fasting from the evening preceding the test, are treated orally with various doses (4 to 5) of the test drugs, dissolved/suspended in 1% hydroxycellulose (volume administered 20 ml/kg). Thereafter, the animals are fed again (Morini MIL fodder for mice).
The 50% lethal dose (LD50) is calculated by the method of Litchfield J. T. and Wilcoxon F. (J. Pharmacol. 96, 99-113, 1949) by utilizing the mortality data as obtained at the 14th day after the drug treatment.

The test system of data set [2] is bronchospasm induced by hystamine. The data set is described as follows: Antibronchospastic activity in the guinea-pig, method of Konzett and Rossler. Particulars: drug i.v., inhibition of bronchospasm by hystamine (6 to 20 mg/kg i.v.), relative to theophylline, taken equal to 100. It counts as in vivo. On the procedure:
Spotted female guinea-pigs, with a body weight of 300-500 g., are used.
As a spasmogenous agent, hystamine (6 to 20 mg/kg i.v.) is used. The activity is defined as percent inhibition of the bronchospasm induced by hystamine in the presence of the drug (i.v. administered), compared to the one of hystamine alone in the presence of the solvent.
The drugs are dissolved into 2% dimethylformamide in physiological solution (solvent).

The test system of data set [3] is mucoproduction (bronchial secretion). Briefly: Bronchosecretagogue activity: mucoproduction in the rabbit according to Scuri. Particulars: for Bronchosecretagogue activity: rabbit, oral, percent increase of mucoproduction II vs I period, relative to d,l-trans-sobrerol, taken equal to 100. It counts as in vivo. The method, then:
Method of mucoproduction in the rabbit according to Scuri R. et al, Boll. Chim. Farm.
Male brown rabbits weighing 2.8-3.5 kg are used. To said animals, by a surgical operation under anaesthesia, a T shaped tracheal cannula is applied, as described in the above mentioned bibliographic reference.
To the cannula, a container (a polypropylene 2 ml test tube) is applied for periodical collection of the bronchial secretion.
The study of mucoproduction, started at the fourth day after the operation, is divided into two 4 hour periods for collecting and measuring the mucus, and precisely from 8:30 to 12:30 (I) and from 12:30 to 16:30 (II).
The activity of each drug is tested by administering the same by oesophageal way (os) at the begining of the II period and by evaluating the percent increase of mucoproduction (weight of the mucus as collected) over the II period as compared to the I period.

The subject of data set [4] is bronchial mucus of bronchitic rabbits. The data set is described as follows: Fluidizing "in vivo" activity: viscosity of the bronchial mucus of bronchitic rabbits. Particulars: for Fluidizing "in vivo" activity of bronchial mucus: bronchitic rabbits, oral, relative to d,l-trans-sobrerol taken equal to 100. On the set-up: species or system rabbit. On the procedure: Method for studying viscosity of the bronchial mucus of a bronchitic rabbit.
Viscosity of the mucus as withdrawn is studied by using a Contraves RM16 microviscosimeter and it is recorded by a Rheomat 15T-FC apparatus.

Data set [5] is described as follows: Pharmacocinetics: plasma levels (HPLC) and presence in tracheo-bronchial excretion and pulmonary tissue. It counts as in vivo, Wistar rats. The conditions noted are these: rat, 300 mg/kg oral. On the procedure: Two groups of Wistar rats (165.div.250 g) are utilized. Before treatment, the animals were fasting for about 15 hours and were allowed to drink a 10% glucose solution ad libitum.
To the first group, the compound of formula (I) of this invention, orally (transoesophageal intubation) at the dose of 300 mg/kg is administered (a single administration) and at 0.5 h; 1 h; 1.5 h; 2 h; 3 h; 4 h; and 6 h from administration 5 rats/time are sacrificed. The blood, as collected into test tubes containing sodium heparin is centrifuged, and the plasma so obtained is utilized for quantitative analysis of the product, by means of high pressure liquid chromatography (HPLC) with an U.V. detector. To the second group, the compound of formula (I) of this invention at the dose of 300 mg/kg orally is administered (a single administration), and at 1 h and 2 h from administration, 5 rats/time are sacrificed (by bleeding). To each rat, trachea, bronchia and lungs are withdrawn. From trachea and bronchia, by means of two washings with a 0.5 ml syringe containing physiological solution, introduced into the trachea, the tracheo-bronchialexcretion is recovered, which is utilized to evaluate quantitatively the presence of the compound of formula (I) of the present invention. The pulmonary tissue, to which a KCl solution has been added, is homogenized by an ultra Turrax apparatus and utilized for the quantitative testing of the presence of the compound of formula (I) of this invention. […] In relation to the activity shown on by the compound of the invention as a mucosecretolytic-fluidizing-anti-bronchospastic agent, the present invention further provides pharmaceutical compositions containing the compound of formula (I) of this invention in dosage units.

As usually defined, the LD50 is the dose at which mortality reaches 50%. A lower LD50 goes with a more toxic substance. Consider `CC1=CC[C@H](C(C)(C)O)C[C@H]1OC(=O)Cn1cnc2c1c(=O)n(C)c(=O)n2C` (relative stereo) [CO/1488, 5-hydroxy-α,α-4-trimethyl-3-cyclohexene-1-methanol-5-[2[7[1,2,3,6-tetrahydro-1,3-dimethyl-2,6-dioxopurinyl]]]acetate], for which the LD50 at 336 h in data set [1] is 1900 mg/kg. The Antibronchospastic activity in data set [2] is 143. Moreover, the Bronchosecretagogue activity in data set [3] is reported as 128. Besides, in data set [3] (summary statement), the “mucosecretolytic activity compared with d,l-trans-sobrerol, in words” value is “slight potency increase”. Besides, the “Fluidizing "in vivo" activity of bronchial mucus” value (shortened to “Fluidizing "in vivo" activity”) in data set [4] stood at 110. Also, the “fluidizing activity compared with d,l-trans-sobrerol, in words” value in data set [4] (summary statement) is “slight potency increase”. In data set [5] (1 h and 2 h), the “presence at the level of tracheo-bronchial mucus” value is given as “found also at the level of tracheo-bronchial mucus” and the “presence in the pulmonary parenchyma” value is “in the pulmonary parenchyma”. In addition, the “absorption (course of the plasmatic levels)” value in data set [5] (single administration, plasma 0.5 to 6 h) is “quick and good absorption”.
As to `CC1=CC[C@H](C(C)(C)O)C[C@H]1O` (relative stereo) [d,l-trans-sobrerol], the Antibronchospastic activity in data set [2] came to 0. Moreover, the Bronchosecretagogue activity in data set [3] worked out at 100. The “Fluidizing "in vivo" activity” value in data set [4] was 100.
Take `Cn1c(=O)c2[nH]cnc2n(C)c1=O` [theophylline]: in data set [2], the Antibronchospastic activity came out at 100. In addition, the Bronchosecretagogue activity in data set [3] amounted to 0. Also, the “Fluidizing "in vivo" activity” value in data set [4] is 0.
